Key:
Type in all cases: in vivo
[1] = tested on: barnyardgrass (Echinochloa crus-galli); assay: Test A pre-/postemergence greenhouse herbicide test, visual injury rating 0-100
Procedure, shortened: (§1)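 Visual injury scored on a 0–100 scale versus untreated controls roughly 10 days after treatment in greenhouse. Treatments were preemergence soil sprays plus postemergence sprays to plants 2–10 cm tall at one- to two-leaf stage, in a surfactant-containing solvent formulation.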

corn (Zea mays) = assay: as above
Procedure, shortened: as §1

[2] = tested on: giant foxtail (Setaria faberii); assay: as above
Procedure, shortened: as §1

[3] = tested on: large (Lg) crabgrass (Digitaria sanguinalis); assay: as above
Procedure, shortened: as §1

[4] = tested on: morningglory (Ipomoea spp.); assay: as above; details: Preemergence
Procedure, shortened: as §1

[5] = tested on: pigweed (Amaranthus retroflexus); assay: as above
Procedure, shortened: as §1

[6] = tested on: velvetleaf (Abutilon theophrasti); assay: as above
Procedure, shortened: as §1

[7] = tested on: wheat (Triticum aestivum); assay: as above
Procedure, shortened: as §1

[8] = tested on: blackgrass (Alopecurus myosuroides); assay: Test C pre-/postemergence greenhouse test, plant response rating 0-100; details: Postemergence
Procedure, shortened: (§2)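 Visual rating vs controls after 13–15 d greenhouse; 0 = no effect, 100 = complete control. Pre: seeds in loam/sand, treated at planting. Post: seedlings 2–18 cm (1–4 leaf) in peat-based mix. Compounds in surfactant-containing non-phytotoxic solvent.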

[9] = tested on: large (Lg) crabgrass (Digitaria sanguinalis); assay: as above; details: Postemergence
Procedure, shortened: as §2

[10] = tested on: morningglory (Ipomoea coccinea); assay: as above; details: Postemergence
Procedure, shortened: as §2

[11] = tested on: ragweed (common ragweed, Ambrosia elatior); assay: as above; details: Postemergence
Procedure, shortened: as §2

[12] = tested on: velvetleaf (Abutilon theophrasti); assay: as above; details: Postemergence
Procedure, shortened: as §2

CC(C)n1cc(C(=O)c2ccccc2)c(-c2cc(Cl)cc(Cl)c2)n1 [Compound 44]
75: Plant response rating (0 to 100), Velvetleaf ([12]; 125 g ai/ha)
20: Velvetleaf plant response rating (0 = no effect, 100 = complete control) ([6]; Preemergence, 125 g ai/ha)
10: Plant response rating, Crabgrass, Large ([9]; 250 g ai/ha, scale 0 to 100) | Plant response rating, Ragweed ([11]; 250 g ai/ha, scale 0 to 100)
70: Plant response rating (0 to 100 scale), Pigweed ([5]; Preemergence, 500 g ai/ha)
60: Plant response rating (0 to 100), Velvetleaf ([12]; 62 g ai/ha)
80: Plant response rating (0 to 100 scale), Pigweed ([5]; Postemergence, 125 g ai/ha) | Plant response rating, Velvetleaf ([12]; 250 g ai/ha, scale 0 to 100)
0: Plant response rating (0 to 100 scale), Barnyardgrass ([1]; Postemergence, 125 g ai/ha) | Plant response rating (0 to 100 scale), Barnyardgrass ([1]; Postemergence, 500 g ai/ha) | Barnyardgrass plant response rating (0 = no effect, 100 = complete control) ([1]; Preemergence, 125 g ai/ha) | Plant response rating (0 to 100 scale), Barnyardgrass ([1]; Preemergence, 500 g ai/ha) | Plant response rating (0 to 100 scale), Corn (corn (Zea mays); Postemergence, 125 g ai/ha) | Plant response rating (0 to 100 scale), Corn (corn (Zea mays); Postemergence, 500 g ai/ha) | Corn plant response rating (0 = no effect, 100 = complete control) (corn (Zea mays); Preemergence, 125 g ai/ha) | Plant response rating (0 to 100 scale), Corn (corn (Zea mays); Preemergence, 500 g ai/ha) | Plant response rating (0 to 100 scale), Foxtail, Giant ([2]; Postemergence, 125 g ai/ha) | Plant response rating (0 to 100 scale), Foxtail, Giant ([2]; Postemergence, 500 g ai/ha) | Foxtail, Giant plant response rating (0 = no effect, 100 = complete control) ([2]; Preemergence, 125 g ai/ha) | Plant response rating (0 to 100 scale), Foxtail, Giant ([2]; Preemergence, 500 g ai/ha) | Plant response rating (0 to 100 scale), Crabgrass, Large ([3]; Postemergence, 125 g ai/ha) | Plant response rating (0 to 100 scale), Crabgrass, Large ([3]; Postemergence, 500 g ai/ha) | Crabgrass, Large plant response rating (0 = no effect, 100 = complete control) ([3]; Preemergence, 125 g ai/ha) | Plant response rating (0 to 100 scale), Crabgrass, Large ([3]; Preemergence, 500 g ai/ha) | Morningglory plant response rating (0 = no effect, 100 = complete control) ([4]; 125 g ai/ha) | Plant response rating (0 to 100 scale), Morningglory ([4]; 500 g ai/ha) | Pigweed plant response rating (0 = no effect, 100 = complete control) ([5]; Preemergence, 125 g ai/ha) | Plant response rating (0 to 100 scale), Wheat ([7]; Postemergence, 125 g ai/ha) | Plant response rating (0 to 100 scale), Wheat ([7]; Postemergence, 500 g ai/ha) | Wheat plant response rating (0 = no effect, 100 = complete control) ([7]; Preemergence, 125 g ai/ha) | Plant response rating (0 to 100 scale), Wheat ([7]; Preemergence, 500 g ai/ha) | Plant response rating (0 to 100), Blackgrass ([8]; 31 g ai/ha) | Plant response rating (0 to 100), Blackgrass ([8]; 62 g ai/ha) | Plant response rating (0 to 100), Blackgrass ([8]; 125 g ai/ha) | Plant response rating, Blackgrass ([8]; 250 g ai/ha, scale 0 to 100) | Plant response rating (0 to 100), Crabgrass, Large ([9]; 31 g ai/ha) | Plant response rating (0 to 100), Morningglory ([10]; 62 g ai/ha)
100: Plant response rating (0 to 100 scale), Pigweed ([5]; Postemergence, 500 g ai/ha)
40: Plant response rating (0 to 100 scale), Velvetleaf ([6]; Preemergence, 500 g ai/ha)
5: Plant response rating (0 to 100), Crabgrass, Large ([9]; 62 g ai/ha) | Plant response rating (0 to 100), Crabgrass, Large ([9]; 125 g ai/ha) | Plant response rating (0 to 100), Morningglory ([10]; 125 g ai/ha) | Plant response rating, Morningglory ([10]; 250 g ai/ha, scale 0 to 100) | Plant response rating (0 to 100), Ragweed ([11]; 62 g ai/ha) | Plant response rating (0 to 100), Ragweed ([11]; 125 g ai/ha)
90: Plant response rating (0 to 100 scale), Velvetleaf ([6]; Postemergence, 125 g ai/ha) | Plant response rating (0 to 100 scale), Velvetleaf ([6]; Postemergence, 500 g ai/ha)
